The nature of series [1]: Exposure of form A1 to various humidity conditions (TGA and crystal form). Type of series: physicochemical. As for the experimental part: (§1) X-Ray powder diffraction data were obtained by a SCINTAG powder X-Ray diffractometer model X'TRA equipped with a solid state detector. Copper radiation of 1.5418 Å was used. A round aluminum sample holder with round zero background quartz plate, with cavity of 25 (diameter)*0.5 (depth) mm was used.
TGA analysis was done using a Mettler M3 meter. The weight of the samples was about 10 mg. The samples were scanned at a rate of 10° C./min from 25° C. to 200° C. The oven was constantly purged with nitrogen gas at a flow rate of 40 ml/min. Standard 70 μl alumina crucibles covered by lids with 1 hole were used.
Ladostigil tartrate form A1 was exposed to various humidity conditions at room temperature for 14 days. TGA was performed, and crystal form was analyzed.

A short description of series [2]: Effect of micronization, pressing and grinding (XRD). Format: physicochemical. The following applies: pressing 1 minute at 100 metric tons, by XRD. As for the experimental part:
as §1
The effects of micronization, pressing (1 minute at 100 metric tons) and grinding were determined by XRD and the following results were obtained: […]

For series [3], the system named is animal models of Alzheimer's disease. To be noted: background statement with literature references; cited from earlier work.
Setting [4] is: RH 100%, room temperature, 14 days.

With “carbamic acid, ethylmethyl-, (3R)-2,3-dihydro-3-(2-propynylamino)-1H-inden-5-yl ester, (2R,3R)-2,3-dihydroxybutanedioate (2:1) [Ladostigil tartrate form A1]”, the TGA in series [1] (RH 60%, room temperature, 14 days) was determined as 0.2; in series [1] (RH 80%, room temperature, 14 days), 0.1; in series [1] (setting [4]), 0.1. Further, the Resulting form entry in series [1] (setting [4]) is “transformed to a mixture of Form A and A1”. In addition, in series [1] (after exposure to 100% RH for 14 days), the water content change result is recorded as “did not change significantly”. The hygroscopicity entry in series [1] (concluded from humidity exposure results) is “neither Form A nor Form A1 is hygroscopic”. For the same compound, in series [2], the crystallinity after pressing result is reported as “lose some extent of crystallinity”.
Turning to `C#CCN[C@@H]1CCc2ccc(OC(=O)N(C)CC)cc21` [Ladostigil, ethyl-methyl-carbamic acid (R)-3-prop-2-ynylamino-indan-5-yl ester], the “efficacy in animal models of Alzheimer's disease” value in series [3] is “effective”.
